From article PMC4457840, “Differential Inhibition of Signal Peptide Peptidase Family Members by Established γ-Secretase Inhibitors” (PLoS ONE, 2015)
Entries after “also recorded” stand apart in the source; their conditions may differ. Read-outs that look alike come from different tables or passages of the source. Numbered stars: 1 amine (or outer) side, 2 acyl side, 3 side chain; on linkers, the order of the positions; unused ones are H or OH. Square brackets hold non-standard residues; d marks the D form. Peptide text beside a SMILES is read from it. * marks the point of attachment. X1 = CC(N[*:1])C(=O)C(F)(F)C(=O)[*:2]; Boc = CC(C)(C)OC(=O)*

Experiments:
pSPP = pSPP (Plasmodium falciparum, UniProt Q8IKQ9); assay: FBA/pSPP co-transfected HEK 293T cell cleavage assay (Aβ ELISA, Western blot, IP/MS); assay type: cell-based, human; conditions: for inhibition at 25 µM: read-out: inhibition of the SPP/SPPLs; for rank order of inhibition: number in parenthesis in Table 3
pSPP, sequence (Q8IKQ9 entry or part of it): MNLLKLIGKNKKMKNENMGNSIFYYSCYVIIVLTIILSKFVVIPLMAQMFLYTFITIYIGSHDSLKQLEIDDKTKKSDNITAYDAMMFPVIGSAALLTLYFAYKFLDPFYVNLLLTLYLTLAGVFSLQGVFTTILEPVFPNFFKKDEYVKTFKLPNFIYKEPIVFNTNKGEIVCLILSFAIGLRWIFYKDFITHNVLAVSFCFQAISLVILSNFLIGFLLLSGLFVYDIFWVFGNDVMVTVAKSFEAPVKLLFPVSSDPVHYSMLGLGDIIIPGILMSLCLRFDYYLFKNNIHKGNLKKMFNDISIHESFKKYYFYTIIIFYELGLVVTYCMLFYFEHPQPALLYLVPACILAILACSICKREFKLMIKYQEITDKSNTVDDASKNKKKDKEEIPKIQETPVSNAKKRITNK
Excerpt: (§1) Expression constructs in pcDNA6 for COOH-terminal FLAG (DYKDDDDK) and strep (WSHPQFEK) tagged SPPL2a, SPPL2b, hSPP and pSPP were generated as previously described. Untagged versions of all enzymes were also made and ligated into the pAG3 vector. Substrates (Fig 1) were designed as follows: FLAG-BRI2_1-81- Aβ1-25/K16A (FBA). The K16A mutation was incorporated to prevent potential α-secretase cleavage that would preclude ELISA based detection of the released COOH-terminal fragment. The substrate DNA was cloned into the expression vector pcDNA6. Constructs were confirmed by DNA sequencing. The overexpression of substrates was performed by transiently transfecting human embryonic kidney (HEK 293T) cells with or without SPP/SPPL vectors. Cells were grown in DMEM media supplemented with Hyclone 10% fetal bovine serum (GE, Logan, Utah, USA) and 1% penicillin/streptomycin (Life Technologies, Grand Island, NY, USA). Briefly, 2.7 μg DNA was applied to a 75% confluent 6 well plate (Corning, Tewksbury, MA, USA) using the polycation polyethylenimine (PEI) transfection method. Inhibitor testing experiments were conducted in 48 well plates with appropriately adjusted amounts of DNA and PEI and incubated 12–16 hours, after which the growth medium was replaced with fresh medium. DMSO (Sigma, St. Louis, MO, USA) and GSIs were added at the appropriate concentration. The GSIs, L685,458 and Compound W were purchased from Tocris (Tocris, Bristol, UK). (Z-LL)2 ketone, Compound E, DAPT, GSI II were purchased from Calbiochem (Merck Millipore, Billerica, MA, USA). LY-411,575 was synthesized by A. Fauq at the Mayo Clinic Chemical Core. Twenty-four hours later, the medium was collected for assay by ELISA and MS. A20 cells (TIB-208) (ATCC, Manassas, VA, USA) were cultured in RPMI-1640 medium (ATCC) supplied with 10% fetal bovine serum, 1% penicillin/streptomycin and 0.05 mM 2-mercaptoethanol (Life Technologies). At the density of 5x10^5 cells/ml, A20 cells were spun down at 1000 g for 2 min and resuspended in fresh medium supplied with DMSO or GSIs and incubated for 16 hr.
(§2) Sandwich ELISAs used for Aβ detection were performed as previously described. Briefly, Aβ and Aβ adducts with substrate TMD in conditioned media was captured with Ab5 antibody (human Aβ1–16 specific) and detected with horseradish peroxidase mAb 4G8 (Covance, Princeton, NJ, USA). Synthetic Aβ1–40 was used as standard. All ELISAs were developed with TMB substrate (KPL, Gaithersburg, Maryland, USA). Bis-Tris precast gels (Biorad, Hercules, CA, USA) were used for all SDS-PAGE. Monoclonal anti-FLAG M2 antibody (Sigma) and Aβ1–16 antibody 6E10 (Covance) were used for Western blotting. Antisera against SPPL2a, SPPL2b, hSPP and pSPP were generated as previously described and were used at dilution of 1:1000 for Western blotting. Anti-CD74 In-1 antibody (BD Bioscience, San Jose, CA, USA) was used for A20 cell lysate Western blotting at dilution of 1:1000.
(§3) Immunoprecipitation and mass spectrometry of xAβ1–25 in conditioned media were performed as previously described. In this study, 10 ml conditioned media were used for each experiment. ICDs were immunoprecipitated with anti-FLAG M2 magnetic beads. Cells from 10 cm dished treated with DMSO or 20 μM LY-411,575 were used for each test.

SPPL2a = target: T1, SPPL2a (Homo sapiens, UniProt Q8TCT8); assay: FBA/SPPL2a co-transfected HEK 293T cell cleavage assay (Aβ ELISA, Western blot); assay type: cell-based; conditions: for inhibition of xAβ1-25/K16A secretion (in words) / inhibition at 25 µM: 25 μM; for IC50: HEK cells, 24 h, xAβ1-25/K16A by Aβ ELISA, mean ± standard error, read-out: IC50 on FBA/SPPL co-transfected cells; for inhibition at 25 µM: HEK-293T, DMSO = 100%, read-out: inhibition of the SPP/SPPLs; for rank order of inhibition: number in parenthesis in Table 3
T1 construct: expressed in transfected cells; host or cells: HEK 293T
T1 sequence (Q8TCT8 26-520): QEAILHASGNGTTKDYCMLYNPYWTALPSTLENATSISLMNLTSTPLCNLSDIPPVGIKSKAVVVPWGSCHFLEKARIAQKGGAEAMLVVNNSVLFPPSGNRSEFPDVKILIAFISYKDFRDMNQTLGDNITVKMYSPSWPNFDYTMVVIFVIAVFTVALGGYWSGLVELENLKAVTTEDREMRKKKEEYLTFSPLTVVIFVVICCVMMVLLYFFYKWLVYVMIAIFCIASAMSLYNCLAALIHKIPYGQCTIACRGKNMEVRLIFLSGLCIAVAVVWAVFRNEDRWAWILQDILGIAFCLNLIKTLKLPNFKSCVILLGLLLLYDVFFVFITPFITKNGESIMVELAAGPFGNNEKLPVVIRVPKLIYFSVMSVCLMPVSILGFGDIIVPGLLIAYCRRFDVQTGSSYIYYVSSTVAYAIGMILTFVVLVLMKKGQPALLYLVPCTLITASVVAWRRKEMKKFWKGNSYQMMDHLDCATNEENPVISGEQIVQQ
Excerpt: as §1, §2

SPPL2b = target: T2, SPPL2b (Homo sapiens, UniProt Q8TCT7); assay: FBA/SPPL2b co-transfected HEK 293T cell cleavage assay (Aβ ELISA, Western blot, IP/MS); assay type: cell-based; conditions: for inhibition of xAβ1-25/K16A secretion (in words) / inhibition at 25 µM: 25 μM, ELISA; for inhibition of FBA cleavage (10 kD ICD) by Western blot: Fig 3C upper panel; for IC50: HEK cells, 24 h, xAβ1-25/K16A by Aβ ELISA, mean ± standard error, read-out: IC50 on FBA/SPPL co-transfected cells; for inhibition at 25 µM: DMSO = 100%, read-out: inhibition of the SPP/SPPLs; for rank order of inhibition: number in parenthesis in Table 3
T2 construct: expressed in transfected cells; host or cells: HEK 293T
T2 sequence (Q8TCT7 26-592): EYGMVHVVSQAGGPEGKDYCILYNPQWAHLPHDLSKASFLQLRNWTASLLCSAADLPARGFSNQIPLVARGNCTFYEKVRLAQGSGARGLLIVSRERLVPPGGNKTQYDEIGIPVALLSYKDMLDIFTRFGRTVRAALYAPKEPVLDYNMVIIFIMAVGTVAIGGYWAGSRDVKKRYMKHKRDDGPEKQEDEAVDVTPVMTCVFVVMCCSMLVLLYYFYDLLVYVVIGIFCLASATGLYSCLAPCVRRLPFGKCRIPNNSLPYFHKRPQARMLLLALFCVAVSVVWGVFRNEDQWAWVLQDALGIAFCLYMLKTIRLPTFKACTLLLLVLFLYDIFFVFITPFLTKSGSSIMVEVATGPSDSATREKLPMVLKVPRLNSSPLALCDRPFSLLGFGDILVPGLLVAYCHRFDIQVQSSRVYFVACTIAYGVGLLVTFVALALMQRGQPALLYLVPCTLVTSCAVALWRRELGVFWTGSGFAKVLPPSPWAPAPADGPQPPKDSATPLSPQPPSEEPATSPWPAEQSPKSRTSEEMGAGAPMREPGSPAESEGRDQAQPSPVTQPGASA
Excerpt: as §1, §2, §3

[1] = 10 μM, Western blot anti-FLAG M2

Structure (SMILES) | IC50 (pSPP) [nM] | inhibition of xAβ1-25/K16A secretion (in words) (pSPP; pSPP, 25 μM, ELISA) | rank order of inhibition (pSPP; pSPP) | inhibition of xAβ1-25/K16A secretion (in words) (SPPL2a; ELISA) | IC50 (SPPL2a) [nM] | inhibition at 25 µM (SPPL2a; ELISA) [%] | rank order of inhibition (SPPL2a) | inhibition of xAβ1-25/K16A secretion (in words) (SPPL2b) | inhibition of FBA cleavage (10 kD ICD) by Western blot (SPPL2b) | IC50 (SPPL2b) [nM] | inhibition at 25 µM (SPPL2b; HEK-293T) [%] | rank order of inhibition (SPPL2b) | other results
CC(C)C[C@H](NC(=O)OCc1ccccc1)C(=O)N[C@@H](CC(C)C)C(=O)NCC(=O)CNC(=O)[C@H](CC(C)C)NC(=O)[C@H](CC(C)C)NC(=O)OCc1ccccc1 [(Z-LL)2 ketone] | 472 ± 114 | largely inhibited | 3 | largely inhibited | 177 ± 99 | > 90 | 2 | largely inhibited | greatly inhibit | 2140 ± 143 | > 90 | 2 | inhibition at 10 µM (pSPP; HEK-293T, pSPP, 10 μM, overnight, Aβ ELISA): > 75%; inhibition at 25 µM (pSPP; HEK-293T, pSPP, 25 μM, ELISA, DMSO = 100%): > 90%; FBA cleavage by co-transfected SPPL (in words) (pSPP; pSPP, 10 μM, Aβ ELISA, Fig 1D): largely inhibited; generation of the SPP/SPPL dependent 10 kDa ICD (pSPP; pSPP, 10 μM, Western blot anti-FLAG M2): significantly reduced; FBA cleavage by co-transfected SPPL (in words) (SPPL2a; 10 μM, Aβ ELISA, Fig 1D): largely inhibited; generation of the SPP/SPPL dependent 10 kDa ICD (SPPL2a; [1]): significantly reduced; FBA cleavage by co-transfected SPPL (in words) (SPPL2b; 10 μM, Aβ ELISA, Fig 1D): largely inhibited; generation of the SPP/SPPL dependent 10 kDa ICD (SPPL2b; [1]): significantly reduced; inhibition at 10 µM (SPPL2b; HEK-293T, 10 μM, overnight, Aβ ELISA): > 75%
C[C@H](NC(=O)Cc1cc(F)cc(F)c1)C(=O)N[C@H]1N=C(c2ccccc2)c2ccccc2N(C)C1=O [Compound E] |  | did not show inhibition |  |  |  |  |  | did not show inhibition | negligible effect |  |  |  | inhibition of SPPL2a in dose response (SPPL2a; at the doses tested, ELISA): < 50%
C[C@H](NC(=O)Cc1cc(F)cc(F)c1)C(=O)NC(C(=O)OC(C)(C)C)c1ccccc1 (stereo partly drawn) [DAPT] |  | does not inhibit |  | does not inhibit |  |  |  | does not inhibit | slightly reduce |  |  |  | 
CC[C@H](C)[C@H](NC(=O)[C@@H](NC(=O)OC(C)(C)C)C(C)C)C(=O)NC(C)C(=O)C(F)(F)C(=O)N[C@H](C(=O)N[C@H](C(=O)OC)[C@@H](C)CC)C(C)C (stereo partly drawn) [GSI II] (Boc-VI[X1]VI-OMe) | 427 ± 100 | efficiently inhibited; also recorded: largely inhibited | 2 | efficiently inhibited; also recorded: largely inhibited | 8800 ± 94 |  | 4 | efficiently inhibited; also recorded: largely inhibited | greatly inhibit | 3600 ± 121 |  | 3 | 
C[C@H](NC(=O)[C@@H](O)c1cc(F)cc(F)c1)C(=O)N[C@@H]1C(=O)N(C)c2ccccc2-c2ccccc21 [LY-411,575] | 3480 ± 90 | largely inhibited | 4 | largely inhibited | 51 ± 79 | > 90 | 1 | largely inhibited | greatly inhibit | 5500 ± 122 | > 90 | 4 | inhibition at 25 µM (pSPP; HEK-293T): > 90%; cleavage products in conditioned media by IP/MS (pSPP; pSPP, 20 μM): No major cleavage product was detected; cleavage products in conditioned media by IP/MS (SPPL2b; 20 μM): No major cleavage product was detected
